According to US4221737A, “1-(Alkynyl)amino-1-(mercaptoalkyl)amino ethylenes” (Bristol-Myers Company, priority 1979, dated 1980):

What was measured:
[1] = cited from earlier work
[2] = test system: gastric secretion; details: animals and man; cited from earlier work
[3] = molecular target: T1, histamine H2-receptors (Cavia porcellus, UniProt P47747); details: Black et al., Nature, 236, 385 (1972); cited from earlier work
T1 construct: The spontaneously beating right atrium was dissected free from other tissues; from tissue; host or cells: isolated right atrium of male Hartley guinea pigs
T1 sequence (P47747 whole entry): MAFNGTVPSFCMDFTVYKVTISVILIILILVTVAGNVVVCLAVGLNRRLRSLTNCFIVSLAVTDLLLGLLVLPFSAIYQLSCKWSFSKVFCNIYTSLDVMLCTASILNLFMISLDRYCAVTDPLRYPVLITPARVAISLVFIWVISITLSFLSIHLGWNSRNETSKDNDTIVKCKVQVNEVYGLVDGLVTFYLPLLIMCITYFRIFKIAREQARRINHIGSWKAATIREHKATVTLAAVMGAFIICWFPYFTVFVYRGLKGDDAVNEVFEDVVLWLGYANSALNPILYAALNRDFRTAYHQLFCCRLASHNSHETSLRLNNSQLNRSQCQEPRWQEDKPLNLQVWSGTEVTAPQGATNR

[4] = molecular target: T1, histamine H2-receptors; assay: Histamine H2-receptor antagonism, isolated guinea pig right atria; details: for Histamine ED50 after test compound / Concentration-Response Curve Displacement Factor: test compound 3 × 10^-5 M; for Histamine ED50 after test compound: 30 minute incubation, 95% limits: cimetidine 3.9-5.9 (N=8), Compound XII 3.10-5.98 (N=2), BL-5949 12.50-15.90 (N=5); for Concentration-Response Curve Displacement Factor: displacement of histamine curve to the right
Experimental: Subsequent investigations by Hughes and Coret, Proc. Soc. […] Black et al., Agents and Actions, 3, 133 (1973) and Brimblecombe et al., Fed. […] The present comparative studies were carried out using a modification of the procedure reported by Reinhardt et al., Agents and Actions, 4, 217 (1974).
Male Hartley strain guinea pigs (350-450 gm.) were sacrificed by a blow on the head. The heart was excised and placed in a Petri dish of oxygenated (95% O2, 5% CO2) modified Krebs solution (g./liter: NaCl 6.6, KCl 0.35, MgSO4.7 H2 O 0.295, KH2 PO4 0.162, CaCl2 0.238, NaHCO3 2.1 and dextrose 2.09). The spontaneously beating right atrium was dissected free from other tissues and a silk thread (4-0) attached to each end. The atrium was suspended in a 20 ml. muscle chamber containing oxygenated modified Krebs solution maintained at 32° C. Atrial contractions were recorded isometrically by means of a Grass FT 0.03 force displacement transducer and recordings of contractile force and rate were made with a Beckman RP Dynograph.
A resting tension of 1 g. was applied to the atrium and it was allowed to equilibrate for 1 hour.
Concentration-response curve displacement factors were calculated as follows: [formula] […] [formula]

[5] = test system: histamine-induced gastric acid output; assay: Gastric antisecretory activity in the gastric fistula dog (histamine-induced gastric acid output); format: in vivo, dog (beagle); details: for Percent Inhibition Acid Output: 1.5 μMole/kg iv (BL-5949: one dog at this dose)
Experimental: Thomas type [Thomas, J. E., Proc. Soc. exp. Biol. Med., 46, 260 (1941)] stainless steel cannulae are inserted into the stomachs of beagle dogs (10-12 kg.) just orad to the pyloric gland area near the greater curvature to provide a chronic gastric fistula. Animals are allowed to recover for at least two months before any testing is done. Dogs are fasted overnight (~18 hours) with water ad lib prior to each experiment. The dogs are placed in a sling and an eight inch inside needle catheter (C. R. Baird, Inc.) with a two inch 17 gauge needle is inserted into a leg vein for purposes of drug administration. Gastric secretions are collected every 15 minutes by gravity drainage from the opened cannula. […] A modification of the procedure described by Grossman and Konturek, Gastroenterology, 66, 517 (1974) was followed. […] Each 15 minute sample of gastric juice is measured to the nearest 0.5 ml. and titratable acidity against 0.02 N NaOH (endpoint pH 7.0) is measured with an Autoburet and pH meter (radiometer).The percent inhibition of acid output is calculated as described in the pylorus ligated rat procedure.

[6] = test system: gastric acid output; assay: Gastric antisecretory activity in the two hour pylorus ligated (Shay) rat; format: in vivo, rat (male Long Evans)
From the text: The pyloric ligation procedure in the rat was designed by Shay et al., Gastroenterology, 5, 53 (1945) for the study of perforating gastric ulcers; however, as the method became known, it was also employed as a means of studying rat gastric secretion, Shay et al., Gastroenterology, 26, 906 (1954), Brodie, D. A., Am. J. Dig. Dis., 11, 231 (1966). A modification of this procedure is presently used to evaluate compounds for gastric antisecretory activity.
Male Long Evans rats, 280-300 gm., are used. The animals are placed in individual cages and fasted for 24 hours with free access to water. Under ether anesthesia, the stomach is reached through a midline incision, and a cotton-thread ligature is placed around the pylorus. […] All compounds are solubilized with one equivalent of HCl and brought to the proper volume with water. The animals are returned to their cages from which the water bottles have been removed and two hours later are sacrificed with ether. The stomach is removed and the two hour gastric collection is drained into a graduated test tube for volume determination. Titratable acidity is measured by titrating a one ml. sample to pH 7.0 with 0.02 N NaOH, using an Autoburet and an electrometric pH meter (Radiometer). […] The percent inhibition of acid output is calculated as follows [formula]

[7] = test system: H2-receptor; details: cited from earlier work
[8] = clinical; cited from earlier work
[9] = test system: peptic ulcer disease; details: Gray et al., Lancet, 1 (8001), 4 (1977); cited from earlier work

Compound | Oral absorption / oral activity (in words) [1] | Histamine ED50 after test compound [4] [µg/mL] | Concentration-Response Curve Displacement Factor [4] | Percent Inhibition Acid Output [5] [%] | Potency as H2 antagonist (in words) [7] | Toxicity (agranulocytosis) (in words) [8] | other results
CNC(=S)NCCCCc1cnc[nH]1 [Burimamide] | oral absorption is poor | – | – | – | – | – | Inhibition of gastric secretion (in words) [2]: inhibits gastric secretion in animals and man; Effect at histamine H2-receptors of guinea pig atria (in words) [3]: a competitive antagonist of these receptors
CNC(=C[N+](=O)[O-])NCCSCc1nc[nH]c1C [Compound XII] | – | 4.30 | 17.92 | – | – | – | –
C#CCNC(=C[N+](=O)[O-])NCCSCc1[nH]cnc1C [BL-5949, 1-Nitro-2-(2-propynylamino)-2-{2-[(4-methyl-1H-imidazol-5-yl)methylthio]ethylamino}ethylene] | – | – | – | 88 | – | – | Potency as histamine H2-receptor antagonist (in words) ([4]; isolated guinea pig atria): more potent than either cimetidine or Compound XII; Potency as inhibitor of gastric secretion (in words) ([5]; dogs): more potent than either cimetidine or Compound XII; Potency relative to Compound XII ([5]; iv, dog): 3.8 times; Potency relative to Compound XII ([6]; ip, rat): 3.7 times; Potency as inhibitor of gastric secretion (in words) ([6]; rats): more potent than either cimetidine or Compound XII
CNC(=NC#N)NCCSCc1nc[nH]c1C [Cimetidine] | – | 4.80 | 25.26 | 53 | as effective an H2 antagonist as metiamide | without producing agranulocytosis | Effectiveness in peptic ulcer disease (in words) [9]: an effective therapeutic agent in the treatment of peptic ulcer disease
CNC(=S)NCCSCc1nc[nH]c1C [Metiamide] | orally active in man | – | – | – | more potent than burimamide | toxicity (agranulocytosis) | –
